Data published in ChEMBL document CHEMBL1811880, “Studies on quinones. Part 47. Synthesis of novel phenylaminophenanthridinequinones as potential antitumor agents” (Eur J Med Chem, 2011).

Assays:
AGS = assay: Anticancer activity against human AGS cells after 3 days by MTT assay; format: functional, cell-based; details: 72 h
MRC5 [1] = assay: Anticancer activity against human MRC5 cells after 3 days by MTT assay; format: ADME, cell-based; details: MRC5, 72 h
SK-MES-1 = assay: Anticancer activity against human SKMES1 cells after 3 days by MTT assay; format: functional, cell-based; details: SK-MES-1, 72 h
J82 = assay: Anticancer activity against human J82 cells after 3 days by MTT assay; format: functional, cell-based; details: J82, 72 h
MRC5 [2] = assay: Selectivity index, ratio IC50 for human MRC5 cells to IC50 for human SKMES1 cells; format: functional
MRC5 [3] = assay: Selectivity index, ratio IC50 for human MRC5 cells to IC50 for human AGS cells; format: functional
MRC5 [4] = assay: Selectivity index, ratio IC50 for human MRC5 cells to IC50 for human J82 cells; format: functional

Compound | IC50 (AGS) [µM] | IC50 (MRC5 [1]) [µM] | IC50 (SK-MES-1) [µM] | IC50 (J82) [µM] | Ratio IC50 (MRC5 [2]) | Ratio IC50 (MRC5 [3]) | Ratio IC50 (MRC5 [4])
COc1ccc(OC)c(NC2=CC(=O)c3c(c(C)nc4c3C(=O)CCC4)C2=O)c1 | 1.4 | 5 | 21.7 | 7.1 | – | – | –
O=C1CCCc2nc(-c3ccccc3)c3c(c21)C(=O)C=CC3=O | 13.9 | 31.2 | 73 | 57.6 | – | – | –
O=C1CCCc2nc(-c3ccco3)c3c(c21)C(=O)C=CC3=O | 68 | 59 | 96.9 | 80.4 | – | – | –
O=C1CCCc2nc(-c3ccsc3)c3c(c21)C(=O)C=CC3=O | 37.1 | 71 | 76.7 | > 100 | – | – | –
O=C1C(Nc2ccccc2)=CC(=O)c2c1cnc1c2C(=O)CCC1 | 0.23 | 1.4 | 1.3 | 2.1 | 6 | 6 | –
COc1ccc(NC2=CC(=O)c3c(cnc4c3C(=O)CCC4)C2=O)cc1 | 0.47 | 2.6 | 2 | 2.8 | – | – | –
COc1ccc(OC)c(NC2=CC(=O)c3c(cnc4c3C(=O)CCC4)C2=O)c1 | 0.32 | 2.6 | 1.8 | 2.5 | 6 | 6 | –
CN(C1=CC(=O)c2c(cnc3c2C(=O)CCC3)C1=O)c1ccccc1 | 4.7 | 7.5 | 10.6 | 12.9 | – | – | –
CCN(C1=CC(=O)c2c(cnc3c2C(=O)CCC3)C1=O)c1ccccc1 | 4.4 | 8.6 | 11.7 | 15.2 | – | – | –
O=C1C=C(Nc2ccccc2)C(=O)c2c1cnc1c2C(=O)CCC1 | 3.9 | 5.9 | 7.5 | 8.1 | – | – | –
COc1ccc(NC2=CC(=O)c3cnc4c(c3C2=O)C(=O)CCC4)cc1 | 2.2 | 4.8 | 3.7 | 4 | – | – | –
COc1ccc(OC)c(NC2=CC(=O)c3cnc4c(c3C2=O)C(=O)CCC4)c1 | 32.9 | 46.4 | 21.3 | 56.7 | – | – | –
CN(C1=CC(=O)c2cnc3c(c2C1=O)C(=O)CCC3)c1ccccc1 | 8.3 | 7.3 | 8.7 | 8.4 | – | – | –
CCN(C1=CC(=O)c2cnc3c(c2C1=O)C(=O)CCC3)c1ccccc1 | 17.1 | 19.6 | 17.7 | 19.5 | – | – | –
Cc1nc2c(c3c1C(=O)C(Nc1ccccc1)=CC3=O)C(=O)CCC2 | 0.65 | 2 | 5.7 | 4.2 | – | – | –
COc1ccc(NC2=CC(=O)c3c(c(C)nc4c3C(=O)CCC4)C2=O)cc1 | 1.2 | 5.2 | 4.1 | 3 | – | – | –
Cc1nc2c(c3c1C(=O)C(Nc1ccc(O)cc1)=CC3=O)C(=O)CCC2 | 1.2 | 2.6 | 3.2 | 1.9 | – | – | –
COc1ccccc1NC1=CC(=O)c2c(c(C)nc3c2C(=O)CCC3)C1=O | 0.22 | 1.6 | 4.3 | 3.7 | – | – | –
Cc1nc2c(c3c1C(=O)C(Nc1ccc(F)cc1)=CC3=O)C(=O)CCC2 | 0.79 | 3 | 3.3 | 3.8 | – | – | –
O=C1CCCc2nc(-c3ccccc3)c3c(c21)C(=O)C=C(Nc1ccccc1)C3=O | 0.33 | 2.7 | 2.8 | 2.9 | 6 | 6 | –
O=C1CCCc2nc(-c3ccco3)c3c(c21)C(=O)C=C(Nc1ccccc1)C3=O | 0.58 | 2.7 | 3.1 | 2.4 | – | – | –
O=C1CCCc2nc(-c3ccsc3)c3c(c21)C(=O)C=C(Nc1ccccc1)C3=O | 0.35 | 2.8 | 2.9 | 2.5 | 6 | 6 | –
COc1ccc(OC)c(NC2=CC(=O)c3c(cnc4cccc(O)c34)C2=O)c1 | 0.18 | 0.53 | 0.63 | 1.4 | – | – | –
COc1ccc(OC)c(NC2=CC(=O)c3cnc4cccc(O)c4c3C2=O)c1 | 19.8 | 17.2 | 13.5 | 0.61 | – | – | 28
O=C1C=CC(=O)c2c1cnc1c2C(=O)CCC1 | – | – | – | 15.8 | – | – | –
COc1cc([C@@H]2c3cc4c(cc3[C@@H](O[C@@H]3O[C@@H]5CO[C@@H](C)O[C@H]5[C@H](O)[C@H]3O)[C@H]3COC(=O)[C@H]23)OCO4)cc(OC)c1O [ETOPOSIDE] | – | – | – | 0.8 | – | – | –
